Results: patent publication US12415785B2, “Compound modulators of sting” (CTXT PTY LTD, priority 2019, dated 2025)

The compounds below were run against human STING (HAQ) (Homo sapiens, UniProt Q86WV6, G230A/H232R/R293Q) (assay: Differential scanning fluorimetry (DSF), huSTING (HAQ)). Settings: 2 μM protein, compound 100 μM; Tm with ligand minus Tm of protein alone (1% DMSO); read-out: DSF huSTING (HAQ) ΔTm (° C.).
Assay type: binding
Description: Biophysical experiments were performed with three different recombinant human STING protein variants designated according to allelic nomenclature of Yi et al., (2013). […] These were ligated into a modified pET43a E. coli expression vector designed to encode N-terminal His tag followed by tobacco etch virus protease (TEV) cleavage site and a STING gene sequence. The resulting protein sequences for the three allelic variants are listed below: […] Cultures were then cooled to 16° C. and protein expression induced by the addition of isopropyl β-D-1-thiogalactopyranoside to a final concentration of 0.5 mM and the cultures shaken overnight for further 16 hours. Following expression, cell cultures were centrifuged at 5000×g for 20 min and cell pellet stored frozen at −70° C. Protein purification was initiated by thawing the cell pellet in Lysis buffer (25 mM Tris-HCl pH 8.0, 300 mM NaCl, 5 mM DTT, 2 mM MgCl2, 10 mM imidazole, 0.5 mg/ml lysozyme, benzonase endonuclease [EMD Millipore], 1 mM PMSF, complete protease inhibitor tablets EDTA-free [Roche]) using a ratio of 7 ml of buffer per 1 g of cells. Cells were further lysed by 3 passes through an ice cooled Avestin C5 cell crusher and then centrifuged at 48,000×g at 4° C. […] The IMAC column was then sequentially washed with IMAC Wash buffer 1 and IMAC Wash buffer 2 (25 mM Tris-HCl pH 8.0, 300 mM NaCl, 5 mM DTT, 20 mM Imidazole) and bound His-TEV-hSTING protein eluted with IMAC Elution buffer (25 mM Tris-HCl pH 8.0, 300 mM NaCl, 5 mM DTT, 250 mM Imidazole). […] Differential scanning fluorimetry (DSF) is a rapid screening method for identifying low-molecular-weight ligands that bind and, in doing so, stabilize (or sometimes destabilize) purified proteins (Niesen 2007). DSF monitors thermal unfolding of protein in the presence of a fluorescent dye and is typically performed using a real-time PCR instrument. The temperature at which a protein unfolds is measured by an increase in the fluorescence of a dye with affinity for hydrophobic parts of the protein that are gradually being exposed during unfolding. The fluorescence of the dye is quenched in aqueous environments, but when the dye associates with hydrophobic sites on unfolded protein, its fluorescence increases. The fluorescence intensity is plotted as a function of the temperature, generating a sigmoidal curve that can be described by a two-state transition. The inflection point of the transition curve (Tm) is calculated using simple equations such as that of Boltzmann. Thermal stability of STING protein (with and without bound ligand) was measured using previously described methodology (Seabrook & Newman, 2013), with samples tested in triplicate using 96-well PCR microplate (AB Gene, ABGAB-0600/W). […] Sealed plates were placed into Bio-Rad CFX96/C1000 thermocycler and FRET scanning mode (λ^excitation of 490 nm and reads at a λ^emission of 570 nm). Melting curves were recorded from 20° C. to 100° C. in 0.5° C. increments every 30 seconds with a read at each increment. Data were analysed using “Meltdown analysis” protocol described by Rosa (2015).

human STING (HAQ), sequence (Q86WV6 whole entry G230A/H232R/R293Q, looked up): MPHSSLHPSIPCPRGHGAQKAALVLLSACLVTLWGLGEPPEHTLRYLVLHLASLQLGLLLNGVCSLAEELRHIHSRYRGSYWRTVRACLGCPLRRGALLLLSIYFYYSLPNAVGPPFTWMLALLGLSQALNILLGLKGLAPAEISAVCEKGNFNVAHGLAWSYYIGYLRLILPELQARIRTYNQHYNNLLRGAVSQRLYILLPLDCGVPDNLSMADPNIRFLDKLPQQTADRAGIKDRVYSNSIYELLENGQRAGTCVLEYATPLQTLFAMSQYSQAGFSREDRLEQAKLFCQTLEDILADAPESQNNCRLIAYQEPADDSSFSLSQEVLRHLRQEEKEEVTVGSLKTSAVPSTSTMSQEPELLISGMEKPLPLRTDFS

First: COc1c(C(N)=O)ccc2c1nc(-c1c(F)cc(F)cc1C(=O)O)n2CCn1c(-c2c(F)cc(F)cc2C(=O)O)nc2c(OC)c(C(N)=O)ccc21 [Example 16, 2,2′-(Ethane-1,2-diylbis(5-carbamoyl-4-methoxy-1H-benzo[d]imidazole-1,2-diyl))bis(3,5-difluorobenzoic acid)]
Second: COc1c(C(N)=O)cc(F)c2c1nc(-c1c(F)cc(F)cc1C(=O)O)n2CCn1c(-c2c(F)cc(F)cc2C(=O)O)nc2c(OC)c(C(N)=O)cc(F)c21 [Example 18, 2,2′-(Ethane-1,2-diylbis(5-carbamoyl-7-fluoro-4-methoxy-1H-benzo[d]imidazole-1,2-diyl))bis(3,5-difluorobenzoic acid)]
The ΔTm at 100 µM of the first is lower: 17.2 °C for the first, 19.1 °C for the second.

First: COc1c(C(N)=O)ccc2c1nc(-c1ccc(Cl)cc1-c1n[nH]c(=O)o1)n2CCn1c(-c2ccc(Cl)cc2-c2n[nH]c(=O)o2)nc2c(OC)c(C(N)=O)ccc21 [Example 17, 1,1′-(Ethane-1,2-diyl)bis(2-(4-chloro-2-(5-oxo-4,5-dihydro-1,3,4-oxadiazol-2-yl)phenyl)-4-methoxy-1H-benzo[d]imidazole-5-carboxamide)]
Second: COc1c(C(N)=O)ccc2c1nc(-c1ccc(Cl)cc1-c1noc(=O)[nH]1)n2CCn1c(-c2ccc(Cl)cc2-c2noc(=O)[nH]2)nc2c(OC)c(C(N)=O)ccc21 [Example 32, 1,1′-(Ethane-1,2-diyl)bis(2-(4-chloro-2-(5-oxo-4,5-dihydro-1,2,4-oxadiazol-3-yl)phenyl)-4-methoxy-1H-benzo[d]imidazole-5-carboxamide)]
The ΔTm at 100 µM of the first is higher: 11.9 °C for the first, 3.99 °C for the second.

First: COc1c(C(N)=O)cc(F)c2c1nc(-c1ccc(Cl)cc1C(=O)O)n2CCn1c(-c2ccc(Cl)cc2C(=O)O)nc2c(OC)c(C(N)=O)cc(F)c21 [Example 20, 6,6′-(Ethane-1,2-diylbis(5-carbamoyl-7-fluoro-4-methoxy-1H-benzo[d]imidazole-1,2-diyl))bis(3-chlorobenzoic acid)]
Second: COc1c(C(N)=O)ccc2c1nc(-c1ccc(Cl)cc1C(=O)O)n2CCCn1c(-c2ccc(Cl)cc2C(=O)O)nc2c(OC)c(C(N)=O)ccc21 [Example 35, 6,6′-(Propane-1,3-diylbis(5-carbamoyl-4-methoxy-1H-benzo[d]imidazole-1,2-diyl))bis(3-chlorobenzoic acid)]
The ΔTm at 100 µM of the first is higher: 3.69 °C for the first, 1.28 °C for the second.

Going from `COC(=O)c1c(Br)cccc1-c1nc2c(OC)c(C(N)=O)ccc2n1CCn1c(-c2cccc(Br)c2C(=O)OC)nc2c(OC)c(C(N)=O)ccc21` [Example 21, Dimethyl 6,6′-(ethane-1,2-diylbis(5-carbamoyl-4-methoxy-1H-benzo[d]imidazole-1,2-diyl))bis(2-bromobenzoate)] to `COc1c(C(N)=O)ccc2c1nc(-c1cccc(Br)c1C(=O)O)n2CCn1c(-c2cccc(Br)c2C(=O)O)nc2c(OC)c(C(N)=O)ccc21` [Example 36, 6,6′-(Ethane-1,2-diylbis(5-carbamoyl-4-methoxy-1H-benzo[d]imidazole-1,2-diyl))bis(2-bromobenzoic acid)], the ΔTm at 100 µM falls from 5.83 °C to 5.24 °C.

Going from `COc1c(C(N)=O)ccc2c1nc(-c1ccc(Cl)cc1-c1cn[nH]n1)n2CCn1c(-c2ccc(Cl)cc2-c2cn[nH]n2)nc2c(OC)c(C(N)=O)ccc21` [Example 24, 1,1′-(Ethane-1,2-diyl)bis(2-(4-chloro-2-(2H-1,2,3-triazol-4-yl)phenyl)-4-methoxy-1H-benzo[d]imidazole-5-carboxamide)] to `COc1c(C(N)=O)ccc2c1nc(-c1cc(Cl)ccc1-c1nn[nH]n1)n2CCn1c(-c2cc(Cl)ccc2-c2nn[nH]n2)nc2c(OC)c(C(N)=O)ccc21` [Example 42, 1,1′-(Ethane-1,2-diyl)bis(2-(5-chloro-2-(2H-tetrazol-5-yl)phenyl)-4-methoxy-1H-benzo[d]imidazole-5-carboxamide)], the ΔTm at 100 µM rises from -0.08 °C to 6.3 °C.

First: COc1c(C(N)=O)ccc2c1nc(-c1ccc(C)cc1C(=O)O)n2CCn1c(-c2ccc(C)cc2C(=O)O)nc2c(OC)c(C(N)=O)ccc21 [Example 25, 6,6′-(Ethane-1,2-diylbis(5-carbamoyl-4-methoxy-1H-benzo[d]imidazole-1,2-diyl))bis(3-methylbenzoic acid)]
Second: COc1c(C(N)=O)ccc2c1nc(-c1cc(C)ccc1C(=O)O)n2CCn1c(-c2cc(C)ccc2C(=O)O)nc2c(OC)c(C(N)=O)ccc21 [Example 26, 2,2′-(Ethane-1,2-diylbis(5-carbamoyl-4-methoxy-1H-benzo[d]imidazole-1,2-diyl))bis(4-methylbenzoic acid)]
The ΔTm at 100 µM of the first is lower: -15.6 °C for the first, 6.33 °C for the second.

Going from `COc1c(C(N)=O)ccc2c1nc(-c1cnccc1C(=O)O)n2CCn1c(-c2cnccc2C(=O)O)nc2c(OC)c(C(N)=O)ccc21` [Example 30, 3,3′-(Ethane-1,2-diylbis(5-carbamoyl-4-methoxy-1H-benzo[d]imidazole-1,2-diyl))diisonicotinic acid] to `COc1c(C(N)=O)ccc2c1nc(-c1ncc(Cl)cc1C(=O)O)n2CCn1c(-c2ncc(Cl)cc2C(=O)O)nc2c(OC)c(C(N)=O)ccc21` [Example 31, 2,2′-(Ethane-1,2-diylbis(5-carbamoyl-4-methoxy-1H-benzo[d]imidazole-1,2-diyl))bis(5-chloronicotinic acid)], the ΔTm at 100 µM rises from 2.14 °C to 3.98 °C.

Going from `CCc1ccc(-c2nc3c(OC)c(C(N)=O)ccc3n2CCn2c(-c3ccc(CC)cc3C(=O)O)nc3c(OC)c(C(N)=O)ccc32)c(C(=O)O)c1` [Example 33, 6,6′-(Ethane-1,2-diylbis(5-carbamoyl-4-methoxy-1H-benzo[d]imidazole-1,2-diyl))bis(3-ethylbenzoic acid)] to `COc1ccc(-c2nc3c(OC)c(C(N)=O)ccc3n2CCn2c(-c3ccc(OC)cc3C(=O)O)nc3c(OC)c(C(N)=O)ccc32)c(C(=O)O)c1` [Example 41, 6,6′-(Ethane-1,2-diylbis(5-carbamoyl-4-methoxy-1H-benzo[d]imidazole-1,2-diyl))bis(3-methoxybenzoic acid)], the ΔTm at 100 µM rises from 4.06 °C to 4.52 °C.

Going from `COc1c(C(N)=O)ccc2c1nc(-c1ccc(Cl)cc1C(=O)O)n2C/C=C/Cn1c(-c2ccc(Cl)cc2C(=O)O)nc2c(OC)c(C(N)=O)ccc21` [Example 34, (E)-6,6′-(But-2-ene-1,4-diylbis(5-carbamoyl-4-methoxy-1H-benzo[d]imidazole-1,2-diyl))bis(3-chlorobenzoic acid)] to `COc1c(C(N)=O)ccc2c1nc(-c1c(F)cc(Cl)cc1Br)n2CCn1c(-c2c(F)cc(Cl)cc2Br)nc2c(OC)c(C(N)=O)ccc21` [Example 45, 1,1′-(Ethane-1,2-diyl)bis(2-(2-bromo-4-chloro-6-fluorophenyl)-4-methoxy-1H-benzo[d]imidazole-5-carboxamide)], the ΔTm at 100 µM rises from 0.49 °C to 1.24 °C.

Compared with `COc1c(C(N)=O)ccc2c1nc(-c1cccc(Cl)c1-c1nn[nH]n1)n2CCn1c(-c2cccc(Cl)c2-c2nn[nH]n2)nc2c(OC)c(C(N)=O)ccc21` [Example 40, 1,1′-(Ethane-1,2-diyl)bis(2-(3-chloro-2-(2H-tetrazol-5-yl)phenyl)-4-methoxy-1H-benzo[d]imidazole-5-carboxamide)], `COc1c(C(N)=O)ccc2c1nc(-c1c(F)cc(F)cc1-c1nn[nH]n1)n2CCn1c(-c2c(F)cc(F)cc2-c2nn[nH]n2)nc2c(OC)c(C(N)=O)ccc21` [Example 43, 1,1′-(Ethane-1,2-diyl)bis(2-(2,4-difluoro-6-(2H-tetrazol-5-yl)phenyl)-4-methoxy-1H-benzo[d]imidazole-5-carboxamide)] is higher in ΔTm at 100 µM: -1.74 °C for the first, 22.2 °C for the second.

`COc1c(C(N)=O)ccc2c1nc(-c1c(F)cc(F)cc1-c1n[nH]c(=O)o1)n2CCn1c(-c2c(F)cc(F)cc2-c2n[nH]c(=O)o2)nc2c(OC)c(C(N)=O)ccc21` [Example 44, 1,1′-(Ethane-1,2-diyl)bis(2-(2,4-difluoro-6-(5-oxo-4,5-dihydro-1,3,4-oxadiazol-2-yl)phenyl)-4-methoxy-1H-benzo[d]imidazole-5-carboxamide)] was tested, and the ΔTm at 100 µM was 13.1 °C.

Same assay, conditions: read-out: DSF huSTING (HAQ) ΔTm (° C.)

With `COc1c(C(N)=O)ccc2c1nc(-c1cc(F)c(F)cc1C(=O)O)n2CCn1c(-c2cc(F)c(F)cc2C(=O)O)nc2c(OC)c(C(N)=O)ccc21` [Example 15, 6,6′-(Ethane-1,2-diylbis(5-carbamoyl-4-methoxy-1H-benzo[d]imidazole-1,2-diyl))bis(3,4-difluorobenzoic acid)] the ΔTm at 100 µM was 4.78 °C.
